# Marks after values point to notes of the source that are not given here.
# Experiment: Lactose content of produced milk in sorbitol feeding trials
# Type: in vivo, Holstein cows
# Conditions: for Lactose in Produced Milk: Pre-Partum Trial #1 (75/0/0 g/day in wk −3..−1/+1..+4/+5..+8)
# Method: To determine the weight percent lactose, wet basis, in a liquid sample, the weight of the liquid sample is first determined. The actual weight of lactose in the liquid sample may then be determined using analysis kit number 176-303, that is available from Boehringer-Mannheim of Indianapolis, Ind. in accordance with the procedural instructions included with analysis kit number 176-303. The weight percent lactose, wet basis, in the liquid sample is then calculated by dividing the actual weight of lactose in the liquid sample by the actual weight of the liquid sample. Each cow of each of the six different trials (Control Trial #1, Control Trial #2, Pre-Partum Trial #1, Pre-Partum Trial #2, Pre/Post Trial #1, and Pre/Post Trial #2) was milked three times daily and the weight of produced milk by each cow was recorded at each milking. The milk from each cow was sampled once per week (⅓ of the sample volume from each of the three milkings occurring on the weekly milk sampling day) and was analyzed for true protein, total fat, lactose, and total solids, as detailed in the property determination and characterization techniques presented above. Additionally, samples of blood were periodically obtained from each cow during the four trials (Control Trial 2, Pre-Partum Trial #2, Pre/Post Trial #1, and Pre/Post Trial #2) encompassed in Example Two and were analyzed for non-esterified fatty acid (NEFA) content as detailed in the property determination and characterization techniques presented above. No NEFA analysis was conducted on the cows employed in Control Trial #1 or Pre-Partum Trial #1 that are the subject of Example One. Example One includes Control Trial #1 and Pre-Partum Trial #1. Both primiparious cows and multiparious cows were included in Control Trial #1 and Pre-Partum Trial #1. Five primiparious cows and fifteen multiparious cows were included in Control Trial #1; likewise, five primiparious cows and fifteen multiparious cows were included in Pre-Partum Trial #1. All cows included in Control Trial #1 and Pre-Partum Trial #1 were Holsteins. Example Two includes Control Trial #2, Pre-Partum Trial #2, Pre/Post Trial #1, and Pre/Post Trial #2. Only multiparious, Holstein cows were included in Control Trial #2, Pre-Partum Trial #1, Pre/Post Trial #1, and Pre/Post Trial #2. Eighteen multiparious cows were included in both Control Trial #2 and Pre-Partum Trial #2, while sixteen multiparious cows were included in Pre/Post Trial #1 and seventeen multiparious cows were included in Pre/Post Trial #2.
structure (smiles),measurement,setting,value
OC[C@@H](O)[C@@H](O)[C@H](O)[C@@H](O)CO [sorbitol],Lactose in Produced Milk,"multiparious cows, weeks +1 through +8",4.77 wt %
same,Lactose in Produced Milk,"primiparious cows, weeks +1 through +8",4.98 wt %
same,increase in lactose concentration in the produced milk,"Pre-Partum Trial #1 (75 g/day wk −3..−1 only) versus Control Trial #1, primiparious cows, weeks +1 through +8",5.1%
same,Lactose Content of Produced Milk,"Pre-Partum Trial #2 (75/0/100 g/day in wk −3..−1/+1..+4/+5..+8), multiparious cows, week +1",4.42 weight %
same,Lactose Content of Produced Milk,"Pre-Partum Trial #2 (75/0/100 g/day in wk −3..−1/+1..+4/+5..+8), multiparious cows, week +2",4.69^a weight %
same,Lactose Content of Produced Milk,"Pre-Partum Trial #2 (75/0/100 g/day in wk −3..−1/+1..+4/+5..+8), multiparious cows, week +3",4.74^a weight %
same,Lactose Content of Produced Milk,"Pre-Partum Trial #2 (75/0/100 g/day in wk −3..−1/+1..+4/+5..+8), multiparious cows, week +4",4.75^a weight %
same,Lactose Content of Produced Milk,"Pre-Partum Trial #2 (75/0/100 g/day in wk −3..−1/+1..+4/+5..+8), multiparious cows, week +5",4.74^a weight %
same,Lactose Content of Produced Milk,"Pre-Partum Trial #2 (75/0/100 g/day in wk −3..−1/+1..+4/+5..+8), multiparious cows, week +6",4.75^a weight %
same,Lactose Content of Produced Milk,"Pre-Partum Trial #2 (75/0/100 g/day in wk −3..−1/+1..+4/+5..+8), multiparious cows, week +7",4.77^a weight %
same,Lactose Content of Produced Milk,"Pre-Partum Trial #2 (75/0/100 g/day in wk −3..−1/+1..+4/+5..+8), multiparious cows, week +8",4.76^a weight %
same,Lactose Content of Produced Milk,"Pre-Partum Trial #2 (75/0/100 g/day in wk −3..−1/+1..+4/+5..+8), multiparious cows, weeks +1 through +4",4.65 weight %
same,Lactose Content of Produced Milk,"Pre-Partum Trial #2 (75/0/100 g/day in wk −3..−1/+1..+4/+5..+8), multiparious cows, weeks +5 through +8",4.76^a weight %
same,Lactose Content of Produced Milk,"Pre/Post Trial #1 (150/125/100 g/day in wk −3..−1/+1..+4/+5..+8), multiparious cows, week +1",4.55 weight %
same,Lactose Content of Produced Milk,"Pre/Post Trial #1 (150/125/100 g/day in wk −3..−1/+1..+4/+5..+8), multiparious cows, week +1, two-trial comparison with Control Trial #2 (Table 25)",4.55 weight %
same,Lactose Content of Produced Milk,"Pre/Post Trial #1 (150/125/100 g/day in wk −3..−1/+1..+4/+5..+8), multiparious cows, week +2",4.79^ab weight %
same,Lactose Content of Produced Milk,"Pre/Post Trial #1 (150/125/100 g/day in wk −3..−1/+1..+4/+5..+8), multiparious cows, week +2, two-trial comparison with Control Trial #2 (Table 25)",4.79 weight %
same,Lactose Content of Produced Milk,"Pre/Post Trial #1 (150/125/100 g/day in wk −3..−1/+1..+4/+5..+8), multiparious cows, week +3",4.87^ab weight %
same,Lactose Content of Produced Milk,"Pre/Post Trial #1 (150/125/100 g/day in wk −3..−1/+1..+4/+5..+8), multiparious cows, week +3, two-trial comparison with Control Trial #2 (Table 25)",4.87 weight %
same,Lactose Content of Produced Milk,"Pre/Post Trial #1 (150/125/100 g/day in wk −3..−1/+1..+4/+5..+8), multiparious cows, week +4",4.90^b weight %
same,Lactose Content of Produced Milk,"Pre/Post Trial #1 (150/125/100 g/day in wk −3..−1/+1..+4/+5..+8), multiparious cows, week +4, two-trial comparison with Control Trial #2 (Table 25)",4.90 weight %
same,Lactose Content of Produced Milk,"Pre/Post Trial #1 (150/125/100 g/day in wk −3..−1/+1..+4/+5..+8), multiparious cows, week +5",4.93^c weight %
same,Lactose Content of Produced Milk,"Pre/Post Trial #1 (150/125/100 g/day in wk −3..−1/+1..+4/+5..+8), multiparious cows, week +5, two-trial comparison with Control Trial #2 (Table 25)",4.93 weight %
same,Lactose Content of Produced Milk,"Pre/Post Trial #1 (150/125/100 g/day in wk −3..−1/+1..+4/+5..+8), multiparious cows, week +6",4.90^ab weight %
same,Lactose Content of Produced Milk,"Pre/Post Trial #1 (150/125/100 g/day in wk −3..−1/+1..+4/+5..+8), multiparious cows, week +6, two-trial comparison with Control Trial #2 (Table 25)",4.90 weight %
same,Lactose Content of Produced Milk,"Pre/Post Trial #1 (150/125/100 g/day in wk −3..−1/+1..+4/+5..+8), multiparious cows, week +7",4.90^ab weight %
same,Lactose Content of Produced Milk,"Pre/Post Trial #1 (150/125/100 g/day in wk −3..−1/+1..+4/+5..+8), multiparious cows, week +7, two-trial comparison with Control Trial #2 (Table 25)",4.90 weight %
same,Lactose Content of Produced Milk,"Pre/Post Trial #1 (150/125/100 g/day in wk −3..−1/+1..+4/+5..+8), multiparious cows, week +8",4.84^ab weight %
same,Lactose Content of Produced Milk,"Pre/Post Trial #1 (150/125/100 g/day in wk −3..−1/+1..+4/+5..+8), multiparious cows, week +8, two-trial comparison with Control Trial #2 (Table 25)",4.84 weight %
same,Lactose Content of Produced Milk,"Pre/Post Trial #1 (150/125/100 g/day in wk −3..−1/+1..+4/+5..+8), multiparious cows, weeks +1 through +4",4.78 weight %
same,Lactose Content of Produced Milk,"Pre/Post Trial #1 (150/125/100 g/day in wk −3..−1/+1..+4/+5..+8), multiparious cows, weeks +1 through +4, two-trial comparison with Control Trial #2 (Table 25)",4.78 weight %
same,Lactose Content of Produced Milk,"Pre/Post Trial #1 (150/125/100 g/day in wk −3..−1/+1..+4/+5..+8), multiparious cows, weeks +1 through +8",4.83^ab weight %
same,Lactose Content of Produced Milk,"Pre/Post Trial #1 (150/125/100 g/day in wk −3..−1/+1..+4/+5..+8), multiparious cows, weeks +1 through +8, two-trial comparison with Control Trial #2 (Table 25)",4.83 weight %
same,Lactose Content of Produced Milk,"Pre/Post Trial #1 (150/125/100 g/day in wk −3..−1/+1..+4/+5..+8), multiparious cows, weeks +5 through +8",4.89^ab weight %
same,Lactose Content of Produced Milk,"Pre/Post Trial #1 (150/125/100 g/day in wk −3..−1/+1..+4/+5..+8), multiparious cows, weeks +5 through +8, two-trial comparison with Control Trial #2 (Table 25)",4.89 weight %
same,increase in lactose concentration in milk,"Pre/Post Trial #1 (150/125/100 g/day) versus Control Trial #2, multiparious cows, weeks +1 through +4 (Table 25)",more than 2.5%
same,increase in lactose concentration in milk,"Pre/Post Trial #1 (150/125/100 g/day) versus Control Trial #2, multiparious cows, weeks +1 through +8 (Table 25)",1.9%
same,increase in lactose concentration in milk,"Pre/Post Trial #1 (150/125/100 g/day) versus Control Trial #2, multiparious cows, weeks +5 through +8 (Table 25)",more than 2.5%
same,Lactose Content of Produced Milk,"Pre/Post Trial #2 (75/75/100 g/day in wk −3..−1/+1..+4/+5..+8), multiparious cows, week +1",4.47 weight %
same,Lactose Content of Produced Milk,"Pre/Post Trial #2 (75/75/100 g/day in wk −3..−1/+1..+4/+5..+8), multiparious cows, week +2",4.84^b weight %
same,Lactose Content of Produced Milk,"Pre/Post Trial #2 (75/75/100 g/day in wk −3..−1/+1..+4/+5..+8), multiparious cows, week +3",4.92^b weight %
same,Lactose Content of Produced Milk,"Pre/Post Trial #2 (75/75/100 g/day in wk −3..−1/+1..+4/+5..+8), multiparious cows, week +4",4.90^b weight %
same,Lactose Content of Produced Milk,"Pre/Post Trial #2 (75/75/100 g/day in wk −3..−1/+1..+4/+5..+8), multiparious cows, week +5",4.90^bc weight %
same,Lactose Content of Produced Milk,"Pre/Post Trial #2 (75/75/100 g/day in wk −3..−1/+1..+4/+5..+8), multiparious cows, week +6",4.92^b weight %
same,Lactose Content of Produced Milk,"Pre/Post Trial #2 (75/75/100 g/day in wk −3..−1/+1..+4/+5..+8), multiparious cows, week +7",4.96^b weight %
same,Lactose Content of Produced Milk,"Pre/Post Trial #2 (75/75/100 g/day in wk −3..−1/+1..+4/+5..+8), multiparious cows, week +8",4.93^b weight %
same,Lactose Content of Produced Milk,"Pre/Post Trial #2 (75/75/100 g/day in wk −3..−1/+1..+4/+5..+8), multiparious cows, weeks +1 through +4",4.78 weight %
same,Lactose Content of Produced Milk,"Pre/Post Trial #2 (75/75/100 g/day in wk −3..−1/+1..+4/+5..+8), multiparious cows, weeks +1 through +8",4.85^b weight %
same,greater lactose concentration in milk,"Pre/Post Trial #2 (75/75/100 g/day) versus Pre-Partum Trial #2 (75/0/100 g/day), multiparious cows, weeks +1 through +8",3.0%
same,increase in lactose concentration in milk,"average of means of Pre-Partum Trial #2, Pre/Post Trial #1 and Pre/Post Trial #2 versus Control Trial #2, multiparious cows, weeks +1 through +4",1.7%
same,increase in lactose concentration in milk,"average of means of Pre-Partum Trial #2, Pre/Post Trial #1 and Pre/Post Trial #2 versus Control Trial #2, multiparious cows, weeks +1 through +8",1.6%
